Measured values from patent publication US20080261862A1, “Materials and Methods for Modulating Signalling by Alpha-V Integring Molecules” (priority 2004, published 2008).
Entries after “also recorded” stand apart in the source; their conditions may differ.

What was measured:
[1] = tested on: SMS-SB cells; test: Proliferation ([3H]-thymidine incorporation) of low cell density SMS-SB cultures; format: cell-based, human; settings: 72 hr; for growth / thymidine incorporation of SMS-SB cells: LCD cultures, 2500 cells/well
Method: For stimulation experiments, SMS-SB cells were cultured at 2500 cells/100 μl culture (low cell density, LCD) a seeding density at which the cells are prone to apoptose^15. NALM-6 cells were washed extensively in PFHM prior to culture at 2, 500 cells/100 μl culture. Cultures were propagated, in the presence or absence of cytokines, MAbs or peptides, at 37° C. for 72 hours followed by addition of 0.3 μCi/well tritiated thymidine ([^3H]-TdR) for 18 hours prior to harvest; incorporation was determined by liquid scintillation spectrometry. Apoptosis was determined by staining harvested cells with propidium iodide (PI) and Hoechst 33342 for 1 minute prior to analysis on a Coulter Elite flow cytometer as previously described^15. For stromal cell/SMS-SB co-cultures, 6000 stromal cells were seeded into individual wells of a 96-well tray and allowed to adhere for 24 hr; anti-CD23 MAb or isotype matched control and SMS-SB cells were added to the wells to give a total culture volume of 100 μl. SMS-SB cells were added at 5, 25 or 50 cells per well and cultures were allowed to expand over a 2-4 week period.

[2] = tested on: SMS-SB cells; test: Flow cytometry binding of biotinylated peptides to SMS-SB cells; format: cell-based, human
From the text: FIG. 3C:—Binding of biotinylated peptides to pre-B cell lines was detected by addition of PE-streptavidin and flow cytometry; mean fluorescence index (MFI) data were derived using CellQuest software. The flow cytometric plots for binding of peptides #9 (black line), #11 (grey line) and #57 (shaded area) are illustrated (Panel i), and MFI data for binding of the noted peptides to SMS-SB (Panel ii), Blin-1 (Panel iii) and Nalm-6 (Panel iv) are shown. The unique nine amino acid sequence of each biotinylated tridecapeptide is shown with the RKC motif shared by αvβ5 binding peptides shown in bold (Panel ii).
Binding of peptides to cells was visualised by treating cells exposed to biotinylated peptides with fluorochrome-conjugated streptavidin and scoring binding by flow cytometry; mean fluorescence intensity data were obtained using the CellQuest programme. In culture experiments, peptides were used in the 10 nM to […] concentration range and appropriate solvent vehicle controls (e.g., acetonitrile, DMSO) were always performed.

| Molecule | growth / thymidine incorporation of SMS-SB cells [1] | binding of biotinylated peptide to SMS-SB cells ([2]; flow cytometry, MFI) | effect of RGDS on SMS-SB growth / thymidine incorporation induced by peptides #9 and #12 ([1]; 10 μg/ml RGDS) | effect of excess RGDS on peptide binding to SMS-SB cells ([2]; ten-fold excess / 10 μg/ml RGDS) |
| --- | --- | --- | --- | --- |
| CKRQFNIWK [9-INV] | reduces substantially, but does not ablate, its ability to elevate thymidine incorporation | does not reduce greatly binding | – | – |
| RGDS | – | – | nor inhibits thymidine incorporation induced by peptides #9 and #12; also recorded: fails to block | neither impedes peptide binding to SMS-SB cells; also recorded: fails to block binding of peptide #9 to SMS-SB cells |
| fibronectin [Fn] | neither Vn nor Fn sustain the growth of SMS-SB cells | – | – | – |
| vitronectin (protein, UniProt P04004 20-478, looked up, extracellular matrix protein, RGD-containing αv ligand) Vitronectin: DQESCKGRCTEGFNVDKKCQCDELCSYYQSCCTDYTAECKPQVTRGDVFTMPEDEYTVYDDGEEKNNATVHEQVGGPSLTSDLQAQSKGNPEQTPVLKPEEEAPAPEVGASKPEGIDSRPETLHPGRPQPPAEEELCSGKPFDAFTDLKNGSLFAFRGQYCYELDEKAVRPGYPKLIRDVWGIEGPIDAAFTRINCQGKTYLFKGSQYWRFEDGVLDPDYPRNISDGFDGIPDNVDAALALPAHSYSGRERVYFFKGKQYWEYQFQHQPSQEECEGSSLSAVFEHFAMMQRDSWEDIFELLFWGRTSAGTRQPQFISRDWHGVPGQVDAAMAGRIYISGMAPRPSLAKKQRFRHRNRKGYRSQRGHSRGRNQNSRRPSRATWLSLFSSEESNLGANNYDDYRMDWLVPATCEPIQSVFFFSGDKYYRVNLRTRRVDTVDPPYPRSIAQYWLGCPAPGHL | neither Vn nor Fn sustain the growth of SMS-SB cells | – | – | – |
